According to ChEMBL document CHEMBL1697723, “A predictive ligand-based Bayesian model for human drug-induced liver injury” (Drug Metab Dispos, 2010):

test system: Hepatotoxicity; assay: Human drug-induced liver injury (DILI) modelling dataset from Ekins et al; settings: not given

**Q.** For C[C@H](CS)C(=O)N1CCC[C@H]1C(=O)O [CAPTOPRIL], which Hepatotoxicity is on record?
**A.** DILI positive (training set)

**Q.** Which Hepatotoxicity does the source give for CCC1(c2ccc(N)cc2)CCC(=O)NC1=O (configuration not stated) [AMINOGLUTETHIMIDE] here?
**A.** DILI negative (training set)

**Q.** With CC(=O)O[C@]1(C(C)=O)CC[C@H]2[C@@H]3C[C@H](C)C4=CC(=O)CC[C@]4(C)[C@H]3CC[C@@]21C [MEDROXYPROGESTERONE ACETATE] as the molecule, how does the Hepatotoxicity read?
**A.** DILI negative (training set)

**Q.** Which Hepatotoxicity does the source give for NCCCC[C@H](N[C@@H](CCc1ccccc1)C(=O)O)C(=O)N1CCC[C@H]1C(=O)O [LISINOPRIL ANHYDROUS] here?
**A.** DILI positive (training set)

**Q.** O[C@H]1[C@H](O)[C@@H](O)[C@H](O)[C@@H](O)[C@H]1O [INOSITOL] was tested. Which Hepatotoxicity did it give?
**A.** DILI negative (test set)

**Q.** Which Hepatotoxicity does the source give for CN(C)CCC(c1ccc(Br)cc1)c1ccccn1.O=C(O)/C=C\C(=O)O (configuration not stated) [BROMPHENIRAMINE MALEATE] here?
**A.** DILI negative (training set)

**Q.** For CC(=O)Oc1ccccc1C(=O)O [ASPIRIN], which Hepatotoxicity is on record?
**A.** DILI negative (training set)

**Q.** For CC(C(=O)O)c1ccc(-c2ccccc2)c(F)c1 (configuration not stated) [FLURBIPROFEN], which Hepatotoxicity is on record?
**A.** DILI positive (training set)

**Q.** For CCc1ccc(CCOc2ccc(CC3SC(=O)NC3=O)cc2)nc1 (configuration not stated) [PIOGLITAZONE], which Hepatotoxicity is on record?
**A.** DILI negative (test set)

**Q.** CC1(COc2ccc(CC3SC(=O)NC3=O)cc2)CCCCC1 (configuration not stated) [CIGLITAZONE] was tested. Which Hepatotoxicity did it give?
**A.** DILI positive (test set)

**Q.** With COCCOC(=O)C1=C(C)NC(C)=C(C(=O)OC(C)C)C1c1cccc([N+](=O)[O-])c1 (configuration not stated) [NIMODIPINE] as the molecule, how does the Hepatotoxicity read?
**A.** DILI positive (training set)

**Q.** CISPLATIN was tested. Which Hepatotoxicity did it give?
**A.** DILI positive (test set)

**Q.** Which Hepatotoxicity does the source give for O=C(O)c1cc(/N=N/c2ccc(S(=O)(=O)Nc3ccccn3)cc2)ccc1O [SULFASALAZINE] here?
**A.** DILI positive (training set)

**Q.** How did the Hepatotoxicity turn out when Nc1ccc(C(=O)[O-])cc1.[K+] [AMINOBENZOATE POTASSIUM] was run?
**A.** DILI negative (training set)

**Q.** Nc1nc(NC2CC2)c2ncn([C@H]3C=C[C@@H](CO)C3)c2n1 [ABACAVIR] was tested. Which Hepatotoxicity did it give?
**A.** DILI positive (test set)

**Q.** How did the Hepatotoxicity turn out when CC1(C)C(C=C(Cl)Cl)C1C(=O)OCc1cccc(Oc2ccccc2)c1 (configuration not stated) [PERMETHRIN] was run?
**A.** DILI negative (test set)

**Q.** Which Hepatotoxicity does the source give for CC(C)(C)NC[C@H](O)COc1ccccc1C1CCCC1.CC(C)(C)NC[C@H](O)COc1ccccc1C1CCCC1.O=S(=O)(O)O [PENBUTOLOL SULFATE] here?
**A.** DILI positive (test set)

**Q.** Which Hepatotoxicity does the source give for CCC1(c2ccccc2)C(=O)NC(=O)N(C)C1=O (configuration not stated) [MEPHOBARBITAL] here?
**A.** DILI positive (test set)

**Q.** With COC(=O)Nc1nc2ccc(C(=O)c3cccs3)cc2[nH]1 [NOCODAZOLE] as the molecule, how does the Hepatotoxicity read?
**A.** DILI negative (training set)

**Q.** With CC[C@H]1OC(=O)[C@H](C)[C@@H](O[C@H]2C[C@@](C)(OC)[C@@H](O)[C@H](C)O2)[C@H](C)[C@@H](O[C@@H]2O[C@H](C)C[C@H](N(C)C)[C@H]2O)[C@](C)(O)C[C@@H](C)C(=O)[C@H](C)[C@@H](O)[C@]1(C)O [ERYTHROMYCIN] as the molecule, how does the Hepatotoxicity read?
**A.** DILI negative (training set)

**Q.** How did the Hepatotoxicity turn out when C[C@H](N)Cc1ccccc1.C[C@H](N)Cc1ccccc1.O=S(=O)(O)O [DEXTROAMPHETAMINE SULFATE] was run?
**A.** DILI positive (test set)

**Q.** How did the Hepatotoxicity turn out when Cc1ccccc1C(OCCN(C)C)c1ccccc1.O=C(O)CC(O)(CC(=O)O)C(=O)O (configuration not stated) [ORPHENADRINE CITRATE] was run?
**A.** DILI negative (training set)

same assay, conditions: Liver

**Q.** Which Hepatotoxicity does the source give for OC(Cn1cncn1)(Cn1cncn1)c1ccc(F)cc1F [FLUCONAZOLE] here?
**A.** DILI positive (training set)

**Q.** How did the Hepatotoxicity turn out when O=C(O)c1cc(-c2ccc(F)cc2F)ccc1O [DIFLUNISAL] was run?
**A.** DILI positive (training set)

**Q.** Which Hepatotoxicity does the source give for CNCCCC12CCC(c3ccccc31)c1ccccc12 [MAPROTILINE] here?
**A.** DILI negative (training set)

**Q.** How did the Hepatotoxicity turn out when COc1cc([C@@H]2c3cc4c(cc3[C@@H](O[C@@H]3O[C@@H]5CO[C@@H](C)O[C@H]5[C@H](O)[C@H]3O)[C@H]3COC(=O)[C@H]23)OCO4)cc(OC)c1O [ETOPOSIDE] was run?
**A.** DILI positive (training set)

**Q.** Cc1ccc(-c2cc(C(F)(F)F)nn2-c2ccc(S(N)(=O)=O)cc2)cc1 [CELECOXIB] was tested. Which Hepatotoxicity did it give?
**A.** DILI positive (test set)
